These results are taken from article PMC8400257, “2-Phenoxy-3-Trichloromethylquinoxalines Are Antiplasmodial Derivatives with Activity against the Apicoplast of Plasmodium falciparum” (Pharmaceuticals, 2021).

Each structure is given as a SMILES string.

In the experiment the test system is P. falciparum ART-resistant strain F32-ART5. Kind of experiment: Standard in vitro chemo-sensitivity assay, F32-ART5. The class given is cell-based. The note with it: Plasmodium falciparum, F32, 48 h, read-out: Mean ± SEM EC50 values F32-ART5. How it is done: The Plasmodium falciparum ART-resistant strain F32-ART5 and its tween ART-sensitive strain F32-TEM [33, 41] were cultivated at 37 °C with 5% CO2 in human red blood cells (EFS, French Blood Bank) diluted to 2% hematocrit in RPMI-1640 medium (Biowest, Nuaillé, France) supplemented with 5% human serum (EFS, French Blood Bank), as previously reported.
The chemosensitivity assay was carried out in 96-well culture plates on synchronized ring-stage parasites at 1% parasitemia obtained after D-sorbitol treatment. The antiplasmodial activities were evaluated using the SYBR Green I method. Parasites were exposed for 48 h to a range of concentrations of the different tested compounds. Each drug concentration was tested in triplicates. Parasite pellets were then washed in 1× PBS prior to lysing red blood cells at −20 °C overnight. Then, the plates were thawed and 100 µL of each well were transferred into a black 96-well plate. Next, 100 µL per well of SYBR Green I (Thermo Fisher) diluted at a final concentration of 2× in lysis buffer (20 mM Tris base pH 7.5, 5 mM EDTA, 0.008% w/v saponin, 0.08% w/v Triton X-100) were added and left to incubate for 1 h at room temperature prior to reading the plates on BioTek FLx800 Microplate Fluorescence Reader (λexcitation = 485 nm, λemission = 528 nm). Relative EC50 values were determined using GraphPad Prism software.

As to `O=[N+]([O-])c1ccc(Oc2nc3ccccc3nc2C(Cl)(Cl)Cl)cc1` [3i, 2-(4-Nitrophenoxy)-3-trichloromethylquinoxaline], the EC50 worked out at 400 ± 105 nM.

What is called EC50 is the concentration needed to bring the measured effect to its halfway point.
